The source of these data is US11236102B2, “Oxabicycloheptane prodrugs” (Lixte Biotechnology, Inc., priority 2015, dated 2022).

A short description of data set [1]: Liver S9 stability and metabolite formation. Type of data set: in vitro ADME, rat, dog, monkey and human. Conditions: presence and absence of NADPH, cross species. The protocol:
The stability (whole blood, liver S9, SGF, SIF, and PBS buffer) and MDCK-MDR1 monolayer permeability of LB100, LB-100 Carbonate and LB-100 POM were evaluated.
Samples were analyzed by LC-MS/MS using a SCIEX QTrap 5500 mass spectrometer coupled with an Agilent 1290 HPLC Infinity series, a CTC PAL chilled autosampler, all controlled by Analyst software. After separation on a C18 reverse phase HPLC column (Acquity UPLC HSS T3, 1.8, 2.1×50 mm) using an acetonitrile-water gradient system, peaks were analyzed by mass spectrometry (MS) using […] ionization in MRM mode.
Experimental Procedure: Test agent is incubated in duplicate with liver S9 at 37° C. The reaction contains liver S9 protein in 100 mM potassium phosphate, 2 mM NADPH, 3 mM MgCl2, pH 7.4. A control is run for each test agent omitting NADPH to detect NADPH-free degradation. At indicated times, an aliquot is removed from each experimental and control reaction and mixed with an equal volume of ice-cold Stop Solution (methanol, containing internal standard propranolol). Stopped reactions are incubated for 10 minutes at −20° C. Samples are centrifuged to remove precipitated protein, and supernatants are analyzed by LC/MS/MS to quantitate remaining parent and the formation of metabolites. Data are reported as % remaining by dividing by the time zero concentration value.

A short description of the next data set: in vivo. Conditions: rat, iv, 1.4 mg/kg; for Kp at 0.25 hr / Kp at 1 hr / Kp at 2 hr: Liver-plasma concentration ratio of Endothal. On the procedure:
113 was dissolved in 4% NaHCO3 in saline for IV administration. The detailed procedure of dosing solution preparation was presented in Appendix I.
15 animals were placed on the study. The animals in IV arm were free access to food and water. For PO dose group, the animals were fasted overnight prior to dosing and the food was resumed 4 hours postdose.
The IV injection was conducted via foot dorsal vein. PO via oral gavage.
Blood collection: The animal is restrained manually. Approximately 200 μL of blood/time point is collected into sodium heparin tube via cardiac puncture for terminal bleeding (anesthetized under carbon dioxide). Blood sample will be put on ice and centrifuged to obtain plasma sample (2000 g, 5 min under 4° C.) within 10 minutes.
Liver collection: The animal will be euthanized with carbon dioxide inhalation. Open abdominal cavity with scissor to expose internal organs. Hold the carcass in an upright position and allow the organs to fall forward. Cut the connective tissues and remove the organs. Then the organs are rinsed with cold saline, dried on filtrate paper, placed into a screw-top tube and weighed, snap frozen by placing into dry-ice immediately.
Brain collection: Make a mid-line incision in the animals scalp and retract the skin. Using small bone cutters and rongeurs, remove the skull overlying the brain. Remove the brain using a spatula and rinse with cold saline, dried on filtrate paper, placed into a screw-top tube and weighed, snap frozen by placing into dry-ice immediately. […] Plasma, brain and liver samples were stored at approximately −80° C. until analysis. The backup samples will be discarded after three weeks after in-life completion unless requested. The unused dosing solutions will be discarded within three weeks after completion of the study.
Pharmacokinetic Analysis Software: The PK parameters were determined by non-compartmental model of non-compartmental analysis tool, Pharsight Phoenix WinNonlin® 6.2 software. […] Concentration data within 80%-120% of LLOQ was considered within normal instrumental variation and presented in the results. Terminal t1/2 calculation: Time points were automatic selected by “best fit” model for terminal half life estimation as the first option. Manual selection was applied when “best fit” could not well define the terminal phase. Results

Setting [2] is: male, SD, liver concentration of Endothal.

Consider `COC(=O)C1C2CCC(O2)C1C(=O)N1CCN(C)CC1` (stereo not shown) [Compound 151], for which the “metabolites observed in liver S9 stability study” value in data set [1] is recorded as “No metabolites were observed”.
By Kp is commonly meant the ratio of the level in a tissue or fluid to that in plasma or blood. Take `O=C(O)C1C2CCC(O2)C1C(=O)O` (stereo not shown) [Endothal, 7-oxabicyclo[2.2.1]heptane-2,3-dicarboxylic acid]: in the data set “in vivo” (male, SD), the Kp at 0.25 hr was 29.2, the Kp at 1 hr worked out at 27.9 and the Kp at 2 hr stood at 23. For the same molecule, in “in vivo” (male, SD, 113 IV 1.4 mg/kg, SD rats, 0.25 hr, mean), the Kp at 0.25 hr is 22.7. The Kp at 1 hr in the data set “in vivo” (male, SD, 113 IV 1.4 mg/kg, SD rats, 1 hr, individual) is 21.7. Also, the Kp at 2 hr in “in vivo” (male, SD, 113 IV 1.4 mg/kg, SD rats, 2 hr, individual) was 45.7. Moreover, in “in vivo” (setting [2]), the concentration at 0.25 hr was 727 ng/g, the concentration at 1 hr came to 902 ng/g, the concentration at 2 hr is 998 ng/g and the concentration at 6 hr worked out at 526 ng/g. In the data set “in vivo” (setting [2]), the concentration at 10 hr came out at 288 ng/g and the concentration at 24 hr worked out at 66.9 ng/g. In addition, the concentration at 2 hr in the data set “in vivo” (male, SD, plasma concentration of Endothal) was found to be 30.4 ng/mL. For the same molecule, in the data set “in vivo”, the “AUC(0-last) in liver” value amounted to 8086 ng·h/g and the “AUC(0-∞) in liver” value was 8678 ng·h/g.
